Measurements taken from BindingDB's records for doi:10.1021/jm701519h (Cns Biological Research, 2008).

Biological target: Cannabinoid receptor 2 (Homo sapiens, UniProt P34972)
Sequence (P34972 whole entry): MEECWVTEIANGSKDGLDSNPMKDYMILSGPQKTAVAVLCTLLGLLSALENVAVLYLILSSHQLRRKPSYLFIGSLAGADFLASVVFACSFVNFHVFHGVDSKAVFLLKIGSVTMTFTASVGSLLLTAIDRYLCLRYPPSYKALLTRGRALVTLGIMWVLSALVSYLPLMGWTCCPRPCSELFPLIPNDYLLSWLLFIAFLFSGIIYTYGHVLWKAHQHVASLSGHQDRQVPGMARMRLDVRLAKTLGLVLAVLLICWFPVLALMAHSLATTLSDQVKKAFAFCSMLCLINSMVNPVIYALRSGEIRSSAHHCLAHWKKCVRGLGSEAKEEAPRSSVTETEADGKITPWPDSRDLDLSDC

With O=C1C(CCC(O)c2ccc(F)cc2)C(c2ccc(O)cc2)N1c1ccc(F)cc1 (stereo unspecified) [CAS_44450418] as the compound, how does the Ki read?
The Ki was 1820 nM.
